The record followed here is patent US10829473B2, “Modulators of the cystic fibrosis transmembrane conductance regulator protein and methods of use” (AbbVie Overseas S.Á.R.L., priority 2017, dated 2020).

pEC50: −log10 of the molar value. Like-named read-outs stand apart in the source and are kept apart here. Marks after values point to notes of the source that are not given here.

A word on the pEC50: it is the negative decadic logarithm of the EC50, by convention in mol/L.

The target in this experiment is T1, F508delCFTR (Homo sapiens, UniProt P13569, DEL508-508).
T1 construct: expressed in transfected cells; host or cells: CFBE41o- human lung derived epithelial cells (CFBE41o-F508delCFTR-HRP), doxycycline-inducible
Kind of experiment: Cell Surface Expression-Horse Radish Peroxidase (CSE-HRP) Assay.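 As to EC50 (with co-corrector): co-corrector chromenyl benzoic acid corrector at 2 or 3 µM.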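 As to Maximum % activity (without co-corrector): % of on-plate positive control chromenyl benzoic acid corrector at 2 or 3 µM.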 In kind it is cell-based. The conditions noted are these: for Emax: read-out: Maximum % activity (without co-corrector). An outline of the steps: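 Corrector compounds were given as 8-point 3-fold series from 20 or 30 μM, with or without a 2 μM co-corrector, for 18-24 h at 33 °C. Surface HRP was read by luminol luminescence as % of positive control; variable-Hill-slope sigmoidal fitting gave EC50 from triplicate plates.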

[1] abbreviates: test compound alone, without co-corrector, read-out: EC50 (without co-corrector).
Where [2] appears, read: with co-corrector, maximum at any tested concentration.
The mark [3] stands for this setting: with co-corrector, read-out: EC50 (with co-corrector).
Setting [4] is: without co-corrector, maximum at any tested concentration.
The mark [5] stands for this setting: test compound with co-corrector, maximum at any tested concentration.
[6] abbreviates: test compound with co-corrector, read-out: EC50 (with co-corrector).
Where [7] appears, read: test compound without co-corrector, maximum at any tested concentration.
The mark [8] stands for this setting: test compound without co-corrector, read-out: EC50 (without co-corrector).
[9] abbreviates: test compound with co-corrector.
[10] abbreviates: test compound without co-corrector.

T1 sequence (P13569 with tags, fused parts or gaps DEL508-508): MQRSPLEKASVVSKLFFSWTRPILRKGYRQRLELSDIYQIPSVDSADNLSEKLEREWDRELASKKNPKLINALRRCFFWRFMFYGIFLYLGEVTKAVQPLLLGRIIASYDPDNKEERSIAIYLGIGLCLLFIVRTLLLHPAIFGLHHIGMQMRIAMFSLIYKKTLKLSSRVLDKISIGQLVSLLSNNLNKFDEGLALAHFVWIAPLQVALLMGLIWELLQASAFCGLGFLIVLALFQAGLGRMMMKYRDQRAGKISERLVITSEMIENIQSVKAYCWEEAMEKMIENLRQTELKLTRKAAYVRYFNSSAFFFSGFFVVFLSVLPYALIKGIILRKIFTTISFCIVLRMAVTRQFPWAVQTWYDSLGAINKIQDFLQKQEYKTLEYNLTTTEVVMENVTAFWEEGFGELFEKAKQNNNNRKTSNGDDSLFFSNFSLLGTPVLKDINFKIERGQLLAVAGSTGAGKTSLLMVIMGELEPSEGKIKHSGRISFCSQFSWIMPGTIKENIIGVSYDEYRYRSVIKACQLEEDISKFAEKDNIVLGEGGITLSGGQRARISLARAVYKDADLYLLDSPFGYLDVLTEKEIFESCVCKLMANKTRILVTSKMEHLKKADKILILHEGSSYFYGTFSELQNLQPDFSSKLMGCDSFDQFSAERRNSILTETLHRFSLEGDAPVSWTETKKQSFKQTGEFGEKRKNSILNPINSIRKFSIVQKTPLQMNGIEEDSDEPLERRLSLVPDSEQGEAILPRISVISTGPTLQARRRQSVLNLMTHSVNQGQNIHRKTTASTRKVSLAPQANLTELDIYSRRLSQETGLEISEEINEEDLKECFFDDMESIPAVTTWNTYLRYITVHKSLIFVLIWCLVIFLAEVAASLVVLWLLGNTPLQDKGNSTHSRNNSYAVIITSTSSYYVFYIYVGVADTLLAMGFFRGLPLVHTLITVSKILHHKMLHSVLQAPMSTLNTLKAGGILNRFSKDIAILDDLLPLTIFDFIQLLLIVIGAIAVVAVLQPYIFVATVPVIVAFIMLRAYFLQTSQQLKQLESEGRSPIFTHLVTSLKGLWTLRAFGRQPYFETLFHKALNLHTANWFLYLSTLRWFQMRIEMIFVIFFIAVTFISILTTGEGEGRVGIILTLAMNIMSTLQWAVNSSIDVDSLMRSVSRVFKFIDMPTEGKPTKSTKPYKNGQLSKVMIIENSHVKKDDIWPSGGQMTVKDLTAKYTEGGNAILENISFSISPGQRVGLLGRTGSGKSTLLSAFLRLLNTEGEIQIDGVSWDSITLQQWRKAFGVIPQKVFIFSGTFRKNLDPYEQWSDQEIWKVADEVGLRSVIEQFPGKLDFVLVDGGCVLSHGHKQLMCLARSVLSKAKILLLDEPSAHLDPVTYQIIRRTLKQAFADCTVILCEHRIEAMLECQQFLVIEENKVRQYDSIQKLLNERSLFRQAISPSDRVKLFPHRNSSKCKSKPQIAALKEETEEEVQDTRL

With `Cc1ccc(OC(C)C)c(C2(C(=O)NS(=O)(=O)c3cccc4nc(N)ccc34)CC2)c1` [Example I-87, N-(2-aminoquinoline-5-sulfonyl)-1-{5-methyl-2-[(propan-2-yl)oxy]phenyl}cyclopropane-1-carboxamide], the pEC50 reads like this: under setting [1], greater than 5.52; under setting [3], greater than 5.52. Besides, the “Maximum % activity (with co-corrector)” value under setting [2] is given as “+++ (≥350)”. In addition, the Emax under setting [4] is greater than 150%.

As to `Cc1cnc(N2CCCC2)c(C2(C(=O)NS(=O)(=O)c3cccc4[nH]ccc34)CC2)c1` [GII-37, N-(1H-indole-4-sulfonyl)-1-[5-methyl-2-(pyrrolidin-1-yl)pyridin-3-yl]cyclopropane-1-carboxamide], the “Maximum % activity (with co-corrector)” value under setting [5] is listed as “+++ (≥350)”. The pEC50 runs as follows: under setting [6], 5.00 to 5.52; under setting [8], 5.00 to 5.52. Under setting [7], the Emax was greater than 150%.

`CCOc1ncc(CC)cc1C1(C(=O)NS(=O)(=O)c2cccc3nc(C)ccc23)CC1` [Example GI-117, 1-(2-ethoxy-5-ethylpyridin-3-yl)-N-(2-methylquinoline-5-sulfonyl)cyclopropane-1-carboxamide]: under setting [5], the “Maximum % activity (with co-corrector)” value is “+++ (≥350)”. Besides, the pEC50 is, setting by setting: under setting [6], greater than 5.52; under setting [8], greater than 5.52. Also, under setting [7], the Emax is greater than 150%.

For `COc1ccc(C)c(OC)c1C1(C(=O)NS(=O)(=O)c2cccc3ccc(C)nc23)CC1` [II-39], the pEC50 under setting [1] was greater than 5.52 and the pEC50 under setting [3] is greater than 5.52. Also, the “Maximum % activity (with co-corrector)” value under setting [2] is listed as “+++ (≥350)”. Also, the Emax under setting [4] was in the range of 50 to 150%.

Regarding `COc1ncc(C)cc1C1(C(=O)NS(=O)(=O)c2cccc3c2CCCN3)CC1` [II-10], the pEC50 is 5.00 to 5.52 under setting [1] and 5.00 to 5.52 under setting [3]. Besides, under setting [2], the “Maximum % activity (with co-corrector)” value is given as “+++ (≥350)”. Further, under setting [4], the Emax is greater than 150%.

For the molecule `Cc1ccc(OC2COC2)c(C2(C(=O)NS(=O)(=O)c3cccc4nc(C)ccc34)CC2)c1` [Example I-106, 1-{5-methyl-2-[(oxetan-3-yl)oxy]phenyl}-N-(2-methylquinoline-5-sulfonyl)cyclopropane-1-carboxamide], the pEC50 under setting [1] was 5.00 to 5.52 and the pEC50 under setting [3] was greater than 5.52. For the same molecule, under setting [2], the “Maximum % activity (with co-corrector)” value is “+++ (≥350)”. Under setting [4], the Emax is greater than 150%.

Regarding `COc1ncc(C2CCC2)c(C)c1C1(C(=O)NS(=O)(=O)c2cccc3ccc(C)nc23)CC1` [II-44], the pEC50 by setting is: under setting [1], greater than 5.52; under setting [3], greater than 5.52. Under setting [2], the “Maximum % activity (with co-corrector)” value is “+++ (≥350)”. Further, the Emax under setting [4] is greater than 150%.

For `COc1ccc(OC)c(C2(C(=O)NS(=O)(=O)c3cccc4ncccc34)CC2)c1` [Example I-29, 1-(2,5-dimethoxyphenyl)-N-(quinoline-5-sulfonyl)cyclopropane-1-carboxamide], the pEC50 runs as follows: under setting [1], greater than 5.52; under setting [3], greater than 5.52. Also, the “Maximum % activity (with co-corrector)” value under setting [2] is recorded as “+++ (≥350)”. In addition, under setting [4], the Emax was greater than 150%.

Regarding `COc1cccc(C2CCC2)c1C1(C(=O)NS(=O)(=O)c2cccc3ncccc23)CC1` [Example I-51, 1-(2-cyclobutyl-6-methoxyphenyl)-N-(quinoline-5-sulfonyl)cyclopropane-1-carboxamide], the pEC50 was greater than 5.52 under setting [1] and greater than 5.52 under setting [3]. In addition, the “Maximum % activity (with co-corrector)” value under setting [2] is “+++ (≥350)”. In addition, the Emax under setting [4] was greater than 150%.

With `O=C(NS(=O)(=O)c1cccc2ncccc12)C1(c2cccnc2N2CCCC2)CC1` [GII-33, 1-[2-(pyrrolidin-1-yl)pyridin-3-yl]-N-(quinoline-5-sulfonyl)cyclopropane-1-carboxamide], the “EC50 (with co-corrector)” value under setting [9] is on record as “++^a”. In addition, the “Maximum % activity (with co-corrector)” value under setting [5] is “++ (≥150 and <350)”. The “EC50 (without co-corrector)” value under setting [10] is given as “++^a”. For the same molecule, the Emax under setting [7] was 50 to 150%.

As to `COc1ccc(C2CC2)cc1C1(C(=O)NS(=O)(=O)c2cccc3nc(C)ccc23)CC1` [II-60], under setting [2], the “Maximum % activity (with co-corrector)” value was “+++ (≥350)”. Besides, the Emax under setting [4] is greater than 150%.

Consider `CCOc1ccc(C)cc1C1(C(=O)NS(=O)(=O)c2cccc3nc(OC)ccc23)CC1` [II-83], for which the pEC50 under setting [1] was greater than 5.52 and the pEC50 under setting [3] was greater than 5.52. Besides, the “Maximum % activity (with co-corrector)” value under setting [2] is listed as “+++ (≥350)”. Moreover, the Emax under setting [4] was greater than 150%.

As to `COc1ccc(C2(C(=O)NS(=O)(=O)c3cccc4c3CCCN4)CC2)c(C)n1` [GIII-15], the “EC50 (with co-corrector)” value under setting [9] is reported as “++^a”. Further, the “Maximum % activity (with co-corrector)” value under setting [5] was “++ (≥150 and <350)”. Besides, the “EC50 (without co-corrector)” value under setting [10] is listed as “++^a”. Moreover, the Emax under setting [7] is less than 50%.

On to `Cc1ccc2c(S(=O)(=O)NC(=O)C3(c4cc(N(C)C)cnc4OCC(C)C)CC3)cccc2n1` [Example I-109, 1-[5-(dimethylamino)-2-(2-methylpropoxy)pyridin-3-yl]-N-(2-methylquinoline-5-sulfonyl)cyclopropane-1-carboxamide], for which the pEC50 by setting is: under setting [1], greater than 5.52; under setting [3], greater than 5.52. Under setting [2], the “Maximum % activity (with co-corrector)” value is “+++ (≥350)”. The Emax under setting [4] is greater than 150%.

In the case of `CCOc1ccc(OC)c(C2(C(=O)NS(=O)(=O)c3cccc4ncccc34)CC2)c1` [Example I-31, 1-(5-ethoxy-2-methoxyphenyl)-N-(quinoline-5-sulfonyl)cyclopropane-1-carboxamide], the pEC50 reads like this: under setting [1], greater than 5.52; under setting [3], greater than 5.52. The “Maximum % activity (with co-corrector)” value under setting [2] is recorded as “+++ (≥350)”. The Emax under setting [4] is greater than 150%.

As for `CCOc1ncc(C2CCC2)cc1C1(C(=O)NS(=O)(=O)c2cccc3ncccc23)CC1` [Example GI-114, 1-(5-cyclobutyl-2-ethoxypyridin-3-yl)-N-(quinoline-5-sulfonyl)cyclopropane-1-carboxamide], under setting [5], the “Maximum % activity (with co-corrector)” value is “+++ (≥350)”. Besides, the pEC50 is greater than 5.52 under setting [6] and 5.00 to 5.52 under setting [8]. The Emax under setting [7] is greater than 150%.

Consider `O=C(NS(=O)(=O)c1cccc2ncccc12)C1(c2cc(Cl)cnc2C(F)(F)F)CC1` [GIII-2], for which, under setting [5], the “Maximum % activity (with co-corrector)” value is “+ (<150)”. Moreover, the pEC50 is, setting by setting: under setting [6], less than 5.00; under setting [8], less than 5.00. Further, the Emax under setting [7] was less than 50%.

As for `CCc1ccc(OC(C)C)c(C2(C(=O)NS(=O)(=O)c3cccc4ncccc34)CC2)n1` [Example GI-55, 1-{6-ethyl-3-[(propan-2-yl)oxy]pyridin-2-yl}-N-(quinoline-5-sulfonyl)cyclopropane-1-carboxamide], the “Maximum % activity (with co-corrector)” value under setting [5] is “+++ (≥350)”. Moreover, the pEC50 reads like this: under setting [6], greater than 5.52; under setting [8], 5.00 to 5.52. Moreover, under setting [7], the Emax was greater than 150%.

Take “1-[5-(cyclopropylmethoxy)-2-methoxypyridin-4-yl]-N-(2-methylquinoline-5-sulfonyl)cyclopropane-1-carboxamide [Example GI-93]”: the “Maximum % activity (with co-corrector)” value under setting [5] was “+++ (≥350)”. Besides, the pEC50 by setting is: under setting [6], greater than 5.52; under setting [8], greater than 5.52. The “Maximum % activity (without co-corrector)” value under setting [7] was “+++ (≥150)”.

With `COc1ccc(C(C)(C)OC)cc1C1(C(=O)NS(=O)(=O)c2cccc3ncccc23)CC1` [Example I-52, 1-[2-methoxy-5-(2-methoxypropan-2-yl)phenyl]-N-(quinoline-5-sulfonyl)cyclopropane-1-carboxamide], the pEC50 reads like this: under setting [1], greater than 5.52; under setting [3], greater than 5.52. Further, the “Maximum % activity (with co-corrector)” value under setting [2] was “+++ (≥350)”. The Emax under setting [4] was greater than 150%.

Turning to `COc1cc(C2(C(=O)NS(=O)(=O)c3cccc4[nH]ccc34)CC2)c(OCC(C)C)cn1` [Example GI-21, N-(1H-indole-4-sulfonyl)-1-[2-methoxy-5-(2-methylpropoxy)pyridin-4-yl]cyclopropane-1-carboxamide], the pEC50 was greater than 5.52 under setting [1] and greater than 5.52 under setting [3]. For the same molecule, under setting [2], the “Maximum % activity (with co-corrector)” value was “+++ (≥350)”. Also, the Emax under setting [4] is greater than 150%.

Turning to `COc1cnc(OCC2CC2)c(C2(C(=O)NS(=O)(=O)c3cccc4nc(C)ccc34)CC2)c1` [Example GI-92, 1-[2-(cyclopropylmethoxy)-5-methoxypyridin-3-yl]-N-(2-methylquinoline-5-sulfonyl)cyclopropane-1-carboxamide], under setting [5], the “Maximum % activity (with co-corrector)” value was “+++ (≥350)”. Also, the pEC50 runs as follows: under setting [6], greater than 5.52; under setting [8], greater than 5.52. Also, the Emax under setting [7] was greater than 150%.

With `CCc1cnc(OC(C)C)c(C2(C(=O)NS(=O)(=O)c3cccc4ncccc34)CC2)c1` [Example GI-13, 1-{5-ethyl-2-[(propan-2-yl)oxy]pyridin-3-yl}-N-(quinoline-5-sulfonyl)cyclopropane-1-carboxamide], the pEC50 under setting [1] was greater than 5.52 and the pEC50 under setting [3] is greater than 5.52. The “Maximum % activity (with co-corrector)” value under setting [2] was “+++ (≥350)”. Moreover, the Emax under setting [4] is greater than 150%.

For `COc1cc(OC(C)C)c(C2(C(=O)NS(=O)(=O)c3cccc4[nH]ccc34)CC2)cn1` [GIII-3], the “Maximum % activity (with co-corrector)” value under setting [5] was “+++ (≥350)”. The pEC50 by setting is: under setting [6], 5.00 to 5.52; under setting [8], 5.00 to 5.52. Further, under setting [7], the Emax was greater than 150%.

Consider `COc1ncc(C(F)(F)F)cc1C1(C(=O)NS(=O)(=O)c2cccc3nc(C)ccc23)CC1` [II-9], for which the pEC50 under setting [1] was 5.00 to 5.52 and the pEC50 under setting [3] was greater than 5.52. For the same molecule, the “Maximum % activity (with co-corrector)” value under setting [2] is “+++ (≥350)”. Also, under setting [4], the Emax is greater than 150%.
